{
  "source": "patent US20080075796A1",
  "about": "“Compositions and Methods for Controlling Insects” (TyraTech, Inc., priority 2003, published 2008)",
  "key": {"Or43a receptor": {"target": "T1, Or43a receptor (Drosophila melanogaster, UniProt P81917, L154V)", "T1 construct": "His (from vector pAc5.1/V5-His B) (C); expressed in transfected cells", "T1 sequence (P81917 whole entry L154V)": "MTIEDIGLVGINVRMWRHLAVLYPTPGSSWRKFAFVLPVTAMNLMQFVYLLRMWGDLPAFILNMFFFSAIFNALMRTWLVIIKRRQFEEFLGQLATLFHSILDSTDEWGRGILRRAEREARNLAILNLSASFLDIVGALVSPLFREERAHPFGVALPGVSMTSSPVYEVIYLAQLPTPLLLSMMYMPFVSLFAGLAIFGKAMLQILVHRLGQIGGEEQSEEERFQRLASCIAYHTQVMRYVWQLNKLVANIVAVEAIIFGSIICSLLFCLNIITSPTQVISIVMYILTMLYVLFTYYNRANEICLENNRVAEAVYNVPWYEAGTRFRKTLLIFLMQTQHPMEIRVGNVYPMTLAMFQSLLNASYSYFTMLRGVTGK", "experiment": "cAMP production in Schneider cells expressing Or43a receptor", "type": "cell-based", "procedure": "Cells are grown on dishes and the media changed the day before the treatment. […] About 20 mL of insect saline is added, and cells are harvested by gentle scraping. An aliquot of the cells is counted by hemocytometer, and the cells are then centrifuged for about 5 minutes at about 1000 RPM. Cells are resuspended to give about 3×10^6 cells per mL. IBMX is added to about 200 μM. Then about 1 mL of cell suspension is aliquoted for treatment. Forskolin (cAMP inducing agent), tyramine or different composition candidates are added, and the cells are incubated at about 27° C. for about 10 minutes.\n(§1) Treated cells are centrifuged at about 13000 g for about 10 seconds. The solution is aspirated and about 1 mL of about −20° C. 70% ethanol is added. The cell pellet is disrupted by vortexing and the samples placed at about −20° C. overnight. Following the ethanol extraction, cellular debris is pelleted by centrifugation at about 13000 g for about 5 minutes. The supernatant is transferred to a tube and lyophilized to dryness in a rotary speed-vac. The resulting extract is resuspended in about 100 μL TE and used for the cAMP assay.\nThe cAMP assay is based on competition binding between endogenous cAMP and ^3H-cAMP to a cAMP binding protein. The ^3H-cAMP Biotrak system (Amersham Biosciences) is used for this assay as per the manufacturer's instructions. Briefly, about 50 μL of the cellular extract is incubated with about 50 μL ^3H-cAMP and about 100 μL cAMP binding protein in an ice bath for about 2-4 hours. Charcoal (about 100 μL) is then added and the solution centrifuged for about 3 minutes at about 4° C. About 200 μL of the reaction mixture is removed and levels of ^3H-cAMP are determined by scintillation counting.\nAs such, the cells expressing olfactory receptors have a functionally active cAMP cascade."}, "tyramine receptor (TyrR)": {"target": "T2, tyramine receptor (TyrR) (Drosophila melanogaster, UniProt P22270)", "T2 sequence (P22270 27-601)": "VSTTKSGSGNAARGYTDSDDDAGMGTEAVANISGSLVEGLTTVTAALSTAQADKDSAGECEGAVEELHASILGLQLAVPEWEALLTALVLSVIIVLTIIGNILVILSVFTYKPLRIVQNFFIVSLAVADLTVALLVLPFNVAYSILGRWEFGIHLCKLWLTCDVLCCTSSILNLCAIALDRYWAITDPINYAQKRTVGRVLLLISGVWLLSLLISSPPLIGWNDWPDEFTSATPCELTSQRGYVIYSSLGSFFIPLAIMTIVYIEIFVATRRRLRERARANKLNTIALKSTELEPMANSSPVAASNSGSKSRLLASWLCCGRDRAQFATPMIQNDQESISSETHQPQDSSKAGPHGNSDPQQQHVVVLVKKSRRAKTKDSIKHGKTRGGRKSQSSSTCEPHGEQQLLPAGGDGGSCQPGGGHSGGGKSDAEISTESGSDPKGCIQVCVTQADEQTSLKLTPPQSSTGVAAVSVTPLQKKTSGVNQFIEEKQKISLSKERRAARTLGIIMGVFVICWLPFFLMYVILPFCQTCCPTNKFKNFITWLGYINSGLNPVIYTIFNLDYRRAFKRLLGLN", "experiment": "cAMP levels in Schneider cells expressing tyramine receptor", "type": "cell-based", "design": "oligonucleotides that are used to amplify the open reading frame of the Drosophila tyramine receptor (TyrR); expressed in transfected cells", "procedure": "Cells are grown on dishes and the media changed the day before the treatment. When cells are approximately 95% confluent, media is aspirated and the cells are washed one time with about 5 mL of about 27° C. insect saline (170 mM NaCl, 6.0 mM KCl, 2.0 mM NaHCO3, 17.0 mM glucose, 6.0 mM NaH2PO4, 2.0 mM CaCl2, 4.0 mM MgCl2; pH 7.0). About 20 mL of insect saline is added, and cells are harvested by gentle scraping. An aliquot of the cells is counted by hemocytometer, and the cells are then centrifuged for about 5 minutes at about 1000 RPM. Cells are resuspended to give about 3×10^6 cells per mL. IBMX is added to about 200 μM. Then about 1 mL of cell suspension is aliquoted for treatment. Forskolin (cAMP inducing agent), tyramine or different composition candidates are added, and the cells are incubated at about 27° C. for about 10 minutes.\nas §1, with “The resulting extract is resuspended in about 100 μL TE and used for the cAMP assay.” left out\nThe cAMP assay is based on competition binding between endogenous cAMP and ^3H-cAMP to a cAMP binding protein. […] About 200 μL of the reaction mixture is removed and levels of ^3H-cAMP are determined by scintillation counting. Levels of endogenous cAMP from the cells are calculated using a standard curve with cold cAMP ranging from about 0 to 16 pmol per reaction.\nTo examine test chemical-dependent coupling of the tyramine receptor, pAcB-TyrR is stably expressed in Schneider cells. Transfected and untransfected cells are treated with tyramine (about 10 μM), LFO (about 25 μg/ml) and BSO (about 25 μg/ml) in the presence and absence of forskolin (FK) (about 10 μM). cAMP production is measured using the ^3H-cAMP assay kit (Amersham) as described above."}},
  "data": [
    {"smiles": "NCCc1ccc(O)cc1", "note": "[tyramine]", "values": [
      {"measurement": "change in cAMP levels", "setting": "Or43a receptor; agent alone, tyramine about 20 μM, LFO, BSO about 50 μg/ml, forskolin about 10 μM", "value": "increase in cAMP levels"},
      {"measurement": "change in cAMP levels, with forskolin", "setting": "Or43a receptor; plus forskolin about 10 μM", "value": "increase in cAMP levels"},
      {"measurement": "effect on cAMP in the presence of forskolin", "setting": "tyramine receptor (TyrR); forskolin about 10 μM", "value": "significantly antagonizes forskolin-stimulated cAMP levels"},
      {"measurement": "decrease in cAMP level", "setting": "tyramine receptor (TyrR); tyramine about 10 μM, LFO and BSO about 25 μg/ml, without forskolin", "value": "about 10%"}
    ]}
  ]
}
